# Measurements published in US20230263822A1, “MODULATION OF FACTOR 11 EXPRESSION” (Ionis Pharmaceuticals, Inc., priority 2008, published 2023).
# Strand notation (5' to 3'): a small letter for the sugar, then the base; units joined by * are phosphorothioate-linked, units joined directly phosphodiester-linked; [ ] holds rarer units or linkages, { } end groups; capitals alone tell only the bases. e = 2'-O-(2-methoxyethyl) (MOE); [5mC] = 5-methylcytosine; d = 2'-deoxy (DNA)
# How the values were obtained:
# [1] = Tolerability in Sprague-Dawley rats: hematology assays (Example 42); settings: 50 mg/kg s.c. twice per week for 6 weeks, blood
# [2] = Tolerability in Sprague-Dawley rats: liver function (Example 42); settings: 50 mg/kg s.c. twice per week for 6 weeks, plasma
# [3] = Tolerability in Sprague-Dawley rats: body weight and organ weight (Example 42); settings: 50 mg/kg s.c. twice per week for 6 weeks; for Change in Kidney weight / Change in Liver weight / Change in Spleen weight: end of study; for Change in body weight: percent increase over the PBS control weight
# [4] = Tolerability in Sprague-Dawley rats: kidney function (Example 42); settings: 50 mg/kg s.c. twice per week for 6 weeks; for BUN / Creatinine: plasma
# [5] = Tolerability in CD1 mice: kidney function (Example 43); type: in vivo; settings: 50 mg/kg s.c. twice per week for 6 weeks, plasma
Substance,HCT [1],Lymphocyte [1],Neutrophil [1],Platelets [1],RBC [1],WBC [1],hemoglobin [1],monocytes [1],ALT [2],AST [2],Albumin [2],Bilirubin [2],Change in Kidney weight [3],Change in Liver weight [3],Change in Spleen weight [3],Change in body weight [3],BUN [4],Creatinine [4],Urine protein/creatinine ratio [4],other results
ISIS 445531: 5-8-5 or 6-8-6 MOE microwalk gapmer (Table 44) (antisense eG*eG*e[5mC]*eA*eT*dT*dG*dG*dT*dG*d[5mC]*dA*d[5mC]*eA*eG*eT*eT*eT),50%,86%,10%,1023 nL⁻¹,8.8 pL⁻¹,13 nL⁻¹,14.8 g/dL,2.8%,272 IU/L,137 IU/L,3.7,0.12 mg/dL,+4%,+17%,+89%,−10%,23 mg/dL,0.4 mg/dL,3.4,
ISIS 445522: 5-8-5 or 6-8-6 MOE microwalk gapmer (Table 44) (antisense eG*e[5mC]*eA*e[5mC]*eA*dG*dT*dT*dT*d[5mC]*dT*dG*dG*e[5mC]*eA*eG*eG*e[5mC]),47%,84%,13%,1334 nL⁻¹,7.7 pL⁻¹,18 nL⁻¹,13.6 g/dL,2.8%,240 IU/L,138 IU/L,3.6,0.47 mg/dL,+19%,+26%,+184%,−13%,25 mg/dL,0.4 mg/dL,6.4,
"ISIS 449707: 3-8-3, 4-8-4, 2-10-2, 3-10-3 or 4-10-4 MOE microwalk gapmer (Table 46) (antisense e[5mC]*eA*e[5mC]*eA*dG*dT*dT*dT*d[5mC]*dT*dG*dG*e[5mC]*eA*eG*eG)",,,,,,,,,,,,,,,,,,,,BUN [5]: 27 mg/dL; Creatinine [5]: 0.2 mg/dL
